Reference: ChEMBL document CHEMBL1201862, “PubChem BioAssay data set” (2004)
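Results reflect a 48-hour exposure of cells in 96-well plates to compound at five concentrations. Abbreviation: GI50, concentration required for 50% inhibition of growth.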 Calls of active or inactive are those of the source. No stated cut-off is given here; in the data, active = GI50 up to about 1.1 µM and inactive = higher.

Assays:
Test in all cases: DTP human tumour cell line panel, 48 h
786-0 = test system: 786-0
A549 = test system: A549
ACHN = test system: ACHN
CCRF-CEM = test system: CCRF-CEM
COLO 205 = test system: COLO 205
DMS-114 = test system: DMS-114
DMS-273 = test system: DMS-273
EKVX = test system: EKVX
HCC 2998 = test system: HCC 2998
HCT-116 = test system: HCT-116
HCT-15 = test system: HCT-15
HL-60 = test system: HL-60
HOP-62 = test system: HOP-62
HT-29 = test system: HT-29
IGROV-1 = test system: IGROV-1
K562 = test system: K562
KM-20L2 = test system: KM-20L2
KM12 = test system: KM12
LOX IMVI = test system: LOX IMVI
LXFL 529 = test system: LXFL 529
M14 = test system: M14
M19-MEL = test system: M19-MEL
MOLT-4 = test system: MOLT-4
Malme-3M = test system: Malme-3M
NCI-H226 = test system: NCI-H226
NCI-H23 = test system: NCI-H23
NCI-H460 = test system: NCI-H460
NCI-H522 = test system: NCI-H522
OVCAR-3 = test system: OVCAR-3
OVCAR-4 = test system: OVCAR-4
OVCAR-5 = test system: OVCAR-5
OVCAR-8 = test system: OVCAR-8
RPMI-8226 = test system: RPMI-8226
RXF 393 = test system: RXF 393
SF-268 = test system: SF-268
SF-295 = test system: SF-295
SF-539 = test system: SF-539
SK-MEL-28 = test system: SK-MEL-28
SK-MEL-2 = test system: SK-MEL-2
SK-MEL-5 = test system: SK-MEL-5
SN12C = test system: SN12C
SNB-19 = test system: SNB-19
SNB-75 = test system: SNB-75
SNB-78 = test system: SNB-78
SR = test system: SR
SW-620 = test system: SW-620
TK-10 = test system: TK-10
U-251 = test system: U-251
UACC-62 = test system: UACC-62
UO-31 = test system: UO-31
XF498 = test system: XF498
A498 = test system: A498
CAKI-1 = test system: CAKI-1
DLD-1 = test system: DLD-1
HOP-18 = test system: HOP-18
HOP-92 = test system: HOP-92
SK-OV-3 = test system: SK-OV-3

`C#CCN(Cc1ccc2nc(-c3ccccc3)c(N)nc2c1)c1cc(OC)c(OC)c(OC)c1` was tested, and the GI50 (786-0) was 44.7 µM (inactive), the GI50 (A549) was 23.2 µM (inactive) and the GI50 (ACHN) was 22.8 µM (inactive). For the same compound, the GI50 (CCRF-CEM) was 17.9 µM (inactive), the GI50 (COLO 205) was 21.2 µM (inactive) and the GI50 (DMS-114) was 14 µM (inactive). For the same compound, the GI50 (DMS-273) was 22.1 µM (inactive), the GI50 (EKVX) was 31.2 µM (inactive) and the GI50 (HCC 2998) was 57.4 µM (inactive). The GI50 (HCT-116) was 19.2 µM (inactive), the GI50 (HCT-15) was 31.9 µM and the GI50 (HL-60) was 17.9 µM (inactive). For the same compound, the GI50 (HOP-62) was 39.2 µM (inactive), the GI50 (HT-29) was 23.4 µM (inactive) and the GI50 (IGROV-1) was 37.1 µM (inactive). For the same compound, the GI50 (K562) was 23.8 µM (inactive), the GI50 (KM-20L2) was 41.3 µM (inactive) and the GI50 (KM12) was > 10 µM (inactive). The GI50 (LOX IMVI) was 25.2 µM (inactive), the GI50 (LXFL 529) was 19.3 µM (inactive) and the GI50 (M14) was 25.5 µM (inactive). For the same compound, the GI50 (M19-MEL) was 27 µM (inactive), the GI50 (MOLT-4) was 12.5 µM (inactive) and the GI50 (Malme-3M) was 26.9 µM (inactive). For the same compound, the GI50 (NCI-H226) was 16.7 µM (inactive), the GI50 (NCI-H23) was 25.1 µM (inactive) and the GI50 (NCI-H460) was 22 µM (inactive). The GI50 (NCI-H522) was 20.9 µM (inactive), the GI50 (OVCAR-3) was 15.4 µM (inactive) and the GI50 (OVCAR-4) was 27.9 µM (inactive). The GI50 (OVCAR-5) was 48.5 µM (inactive), the GI50 (OVCAR-8) was 30.4 µM (inactive) and the GI50 (RPMI-8226) was 11.2 µM (inactive). For the same compound, the GI50 (RXF 393) was 25.5 µM (inactive), the GI50 (SF-268) was 40.7 µM (inactive) and the GI50 (SF-295) was 18.7 µM (inactive). For the same compound, the GI50 (SF-539) was 36.6 µM (inactive), the GI50 (SK-MEL-28) was 37.1 µM (inactive) and the GI50 (SK-MEL-2) was 23.1 µM (inactive). The GI50 (SK-MEL-5) was 11.9 µM (inactive), the GI50 (SN12C) was 32.1 µM (inactive) and the GI50 (SNB-19) was 40.5 µM (inactive). The GI50 (SNB-75) was 30.4 µM (inactive), the GI50 (SNB-78) was 22.9 µM (inactive) and the GI50 (SR) was 13.9 µM (inactive). For the same compound, the GI50 (SW-620) was 36.5 µM (inactive), the GI50 (TK-10) was 46.1 µM (inactive) and the GI50 (U-251) was 37 µM (inactive). The GI50 (UACC-62) was 20 µM (inactive), the GI50 (UO-31) was 23.1 µM (inactive) and the GI50 (XF498) was 30 µM (inactive).

`Cc1ccc(S(=O)(=O)c2ccc(C)cc2[N+](=O)[O-])c([N+](=O)[O-])c1` was tested, and the GI50 (786-0) was > 100 µM (inactive), the GI50 (A549) was > 100 µM (inactive) and the GI50 (ACHN) was 44.9 µM (inactive). For the same compound, the GI50 (CCRF-CEM) was > 100 µM (inactive), the GI50 (COLO 205) was > 100 µM (inactive) and the GI50 (DMS-114) was > 100 µM (inactive). For the same compound, the GI50 (DMS-273) was > 100 µM (inactive), the GI50 (EKVX) was > 100 µM (inactive) and the GI50 (HCC 2998) was > 100 µM (inactive). The GI50 (HCT-116) was > 100 µM (inactive), the GI50 (HCT-15) was greater than 100 µM and the GI50 (HOP-62) was > 100 µM (inactive). The GI50 (HT-29) was > 100 µM (inactive), the GI50 (IGROV-1) was > 100 µM (inactive) and the GI50 (K562) was > 100 µM (inactive). For the same compound, the GI50 (KM-20L2) was > 100 µM (inactive), the GI50 (KM12) was > 100 µM (inactive) and the GI50 (LOX IMVI) was > 100 µM (inactive). For the same compound, the GI50 (LXFL 529) was > 100 µM (inactive), the GI50 (M14) was > 100 µM (inactive) and the GI50 (M19-MEL) was > 100 µM (inactive). The GI50 (MOLT-4) was > 10 µM (inactive), the GI50 (Malme-3M) was > 100 µM (inactive) and the GI50 (NCI-H226) was > 100 µM (inactive). For the same compound, the GI50 (NCI-H23) was > 100 µM (inactive), the GI50 (NCI-H460) was > 100 µM (inactive) and the GI50 (NCI-H522) was > 100 µM (inactive). The GI50 (OVCAR-3) was > 100 µM (inactive), the GI50 (OVCAR-4) was 89.9 µM (inactive) and the GI50 (OVCAR-5) was > 100 µM (inactive). For the same compound, the GI50 (OVCAR-8) was > 100 µM (inactive), the GI50 (RPMI-8226) was > 100 µM (inactive) and the GI50 (RXF 393) was > 100 µM (inactive). The GI50 (SF-268) was > 100 µM (inactive), the GI50 (SF-295) was > 100 µM (inactive) and the GI50 (SF-539) was > 100 µM (inactive). The GI50 (SK-MEL-28) was > 100 µM (inactive), the GI50 (SK-MEL-2) was > 100 µM (inactive) and the GI50 (SK-MEL-5) was > 100 µM (inactive). The GI50 (SN12C) was > 100 µM (inactive), the GI50 (SNB-19) was > 100 µM (inactive) and the GI50 (SNB-75) was 18.5 µM (inactive). For the same compound, the GI50 (SNB-78) was > 100 µM (inactive), the GI50 (SR) was > 100 µM (inactive) and the GI50 (SW-620) was > 100 µM (inactive). The GI50 (TK-10) was > 100 µM (inactive), the GI50 (U-251) was > 100 µM (inactive) and the GI50 (UACC-62) was > 100 µM (inactive). For the same compound, the GI50 (UO-31) was > 100 µM (inactive) and the GI50 (XF498) was > 100 µM (inactive).

For `C/C(=C\Cc1cc(O)ccc1O)CCc1c(C)cc(O)c(C=O)c1C` [PANICEIN B3], the GI50 (786-0) was 25.5 µM (inactive), the GI50 (A498) was 40.3 µM (inactive) and the GI50 (A549) was 27.4 µM (inactive). For the same compound, the GI50 (ACHN) was 17.5 µM (inactive), the GI50 (CAKI-1) was 22.4 µM (inactive) and the GI50 (COLO 205) was 17.7 µM (inactive). For the same compound, the GI50 (DLD-1) was 21.6 µM (inactive), the GI50 (DMS-114) was 14.7 µM (inactive) and the GI50 (DMS-273) was 20.6 µM (inactive). For the same compound, the GI50 (EKVX) was 31.1 µM (inactive), the GI50 (HCC 2998) was 43.2 µM (inactive) and the GI50 (HCT-116) was 19.3 µM (inactive). For the same compound, the GI50 (HCT-15) was 27.4 µM, the GI50 (HL-60) was 34.6 µM (inactive) and the GI50 (HOP-18) was 17.8 µM (inactive). The GI50 (HOP-92) was 18.9 µM (inactive), the GI50 (HT-29) was 20.4 µM (inactive) and the GI50 (IGROV-1) was 23.2 µM (inactive). For the same compound, the GI50 (K562) was > 100 µM (inactive), the GI50 (KM-20L2) was 39.9 µM (inactive) and the GI50 (KM12) was 32.3 µM (inactive). The GI50 (LXFL 529) was 15.4 µM (inactive), the GI50 (M14) was 23.5 µM (inactive) and the GI50 (MOLT-4) was > 100 µM (inactive). For the same compound, the GI50 (Malme-3M) was 21.3 µM (inactive), the GI50 (NCI-H226) was 22.5 µM (inactive) and the GI50 (NCI-H23) was 22.5 µM (inactive). The GI50 (NCI-H460) was 24.3 µM (inactive), the GI50 (NCI-H522) was 10.1 µM (inactive) and the GI50 (OVCAR-3) was 24.9 µM (inactive). The GI50 (OVCAR-4) was 26.4 µM (inactive), the GI50 (OVCAR-8) was 17.1 µM (inactive) and the GI50 (RPMI-8226) was > 100 µM (inactive). For the same compound, the GI50 (RXF 393) was 15.9 µM (inactive), the GI50 (SF-268) was 15.8 µM (inactive) and the GI50 (SF-295) was 27 µM (inactive). For the same compound, the GI50 (SF-539) was 18.5 µM (inactive), the GI50 (SK-MEL-28) was 24 µM (inactive) and the GI50 (SK-MEL-2) was 23 µM (inactive). The GI50 (SK-MEL-5) was 17.4 µM (inactive), the GI50 (SK-OV-3) was 32.7 µM (inactive) and the GI50 (SN12C) was 28.2 µM (inactive). For the same compound, the GI50 (SNB-19) was 44.5 µM (inactive), the GI50 (SNB-75) was 13.9 µM (inactive) and the GI50 (SR) was 28.4 µM (inactive). For the same compound, the GI50 (SW-620) was 45.9 µM (inactive), the GI50 (TK-10) was 34.8 µM (inactive) and the GI50 (U-251) was 19.5 µM (inactive). For the same compound, the GI50 (UO-31) was 23.5 µM (inactive) and the GI50 (XF498) was 18.8 µM (inactive).
